Assay results published in US11179348B2, “Combination comprising pterostilbene for the treatment of cancer” (FUNDACIÓN UNIVERSIDAD CATÓLICA DE VALENCIA SAN VICENTE …, priority 2015, dated 2021).

System: MelJuso melanoma cells
Assay: Nrf2- and redox state-related enzyme activities and metabolites in MelJuso cells growing in vivo
Design: species or system human
Settings: in vivo +Pter, day 35
Experimental: Transfection of the Red Fluorescence Protein.
First the pDsRed-2 vector (Clontech Laboratories Inc., Palo Alto, Calif.) was used, as previously described for A375 melanoma cells (Mena, S. et al. J Transl Med 10, 8 (2012)), to engineer A2058, MeWo and MelJuso melanoma clones stably expressing the RFP. Isolation of A2058-RFP, MeWo-RFP or MelJuso-RFP cells from the growing xenografts was performed by laser microdissection and high-performance cell sorting as previously described in detail (Mena, S. et al. J Transl Med 10, 8 (2012)).
To measure enzyme activity, isolated tumor cells were homogenized in 0.1 M phosphate buffer (pH 7.2) at 4° C. GCL and GSS activities were measured as described previously (Obrador, E. et al. Hepatology 35, 74-81 (2002)). GPX (selenium dependent) activity was measured as described by Flohé and Gunzler (Flohe, L. & Gunzler, W. A. Methods Enzymol 105, 114-121 (1984)) using H2O2 as a substrate. GSR activity was determined as described by Akerboom and Sies (Akerboom, T. P. et al, Bull Eur Physiopathol Respir 17 Suppl, 221-227 (1981)). GGT activity was measured as described previously (Obrador, E. et al. Hepatology 35, 74-81 (2002)). GST activity was measured using an assay kit from Sigma. TXNRD activity, defined by the concentration of sodium-lipoate (disulfide) reduced to dehydrolipoate (dithiol) per milligram protein, was measured as previously described (Javvadi, P. et al. Cancer Res 70, 1941-1950 (2010)). SOD activity was measured as described by Flohé and Otting (Flohe, L. & Otting, F. Methods Enzymol 105, 93-104 (1984).) using 2 mM cyanide in the assay medium to distinguish mangano-type enzyme (SOD2) from the cuprozinc type (SOD1). CAT activity was analyzed as described by Aebi (Aebi, H. Methods Enzymol 105, 121-126 (1984)). NOX activity was measured by chemiluminescence following the methodology of Wind et al. (Wind, S. et al. Comparative pharmacology of chemically distinct NADPH oxidase inhibitors. Br J Pharmacol 161, 885-898 (2010)). Protein concentration was determined with the Pierce BCA protein assay (Fisher Scientific, Waltham, Mass.).
Measurement of H2O2 and O2^⋅−.
Quantitative measurement of H2O2 and flow cytometry determination of O2^⋅− generation were performed as previously described (Benlloch, M. et al. J Biol Chem 281, 69-79 (2006)).
GSH, GSSG, NADP^+ and NADPH Determination.
GSH and GSSG were determined, following procedures previously described (Obrador, E. et al. PLoS One 9, e96466 (2014)), by LC/MS using the same equipment described above for pterostilbene determination. Cell processing was performed according to published methodology, where rapid N-ethylmaleimide derivatization was used to prevent GSH auto-oxidation (Asensi, M. et al. Anal Biochem 217, 323-328 (1994)). NADP^+ and NADPH were quantitated using an assay kit from Sigma (St. Louis, Mo.).

`COc1cc(/C=C/c2ccc(O)cc2)cc(OC)c1` [Pter, trans-3,5-dimethoxy-4′-hydroxystilbene] gave a CAT of 1.1 ± 0.3 mU/10^6 cells, a G6PDH of 366 ± 63 mU/10^6 cells and a GCL of 49 ± 12 mU/10^6 cells. The GGT was 15.9 ± 3.5 mU/10^6 cells, the GPX was 2.1 ± 0.5 mU/10^6 cells and the GSH was 10.8 ± 2.9 nmol/10^6 cells. It also gave a GSH/GSSG of 108 ± 17, a GSR of 5.1 ± 1.0 mU/10^6 cells and a GSS of 7.8 ± 1.5 mU/10^6 cells. The GSSG was 0.1 ± 0.04 nmol/10^6 cells, the GST was 4.7 ± 1.3 mU/10^6 cells and the H2O2 was 0.8 ± 0.2 nmol/10^6 cells × min. The IDH was 1.5 ± 0.4 U/10^6 cells, the ME was 25 ± 7 mU/10^6 cells and the NADPH was 0.05 ± 0.02 nmol/mg prot. The “NADPH/NADP^+” value was 1.7 ± 0.3, the “NADP^+” value was 0.03 ± 0.01 nmol/mg prot and the NOX was 142 ± 37 R.L.U./10^6 cells. For the same molecule, the “O2^−” value was 5.0 ± 1.3 ΔFL1, a.u, the SOD1 was 0.4 ± 0.2 U/10^6 cells and the SOD2 was 0.1 ± 0.05 U/10^6 cells. It also gave a TXN of 0.3 ± 0.1 μg/10^6 cells and a TXNRD of 0.6 ± 0.1 U/10^6 cells.
